# Test results from patent US20220016101A1 (ACADIA Pharmaceuticals Inc., priority 2018, published 2022).
# Test system: patients with MDD and an inadequate response to an SSRI or SNRI
# Assay: HAMD-17 melancholic symptom subscale score (HAMD-6), MDD study
# Type: in vivo, human
# Conditions: for HAMD-17 Melancholic Symptom Subscale Score Change from Baseline to Week 5 Mean (SE) / HAMD-17 Melancholic Symptom Subscale Score Change from Baseline to Week 5 Median: 34 mg QD + SSRI/SNRI
# Source text: “Hamilton Depression Scale 6-item (HAMD-6)” is a subscale derived from the 17-item Hamilton Rating Scale for Depression (HAMD-17). HAMD-6 includes the following items: depressed mood, guilt feelings, work and interests, psychomotor retardation, psychic anxiety, and general somatic symptoms (Bech et al. Acta Psychiatr Scand. 1975, 51(3):161-70).
# All patients continued on their SSRI or SNRI at a stable dose for the duration of the study.
# A higher HAMD-17 melancholic symptom subscale score indicates more severe depression […]. The abbreviations are: CI=confidence interval; LSM=least squares mean; MMRM=mixed-effects model for repeated measures; OC=observed cases; SD=standard deviation; SE=standard error. In Stage 1, Baseline=Study Week 0, Weeks 1-5=Study Weeks 1-5; and in Stage 2, Baseline=Study Week 5, Weeks 1-5=Study Weeks 6-10. LSM is from the stage-specific MMRM analysis with the change from baseline as the outcome; treatment group, visit, treatment-by-visit interaction, baseline melancholic symptom subscale score, and baseline melancholic symptom subscale score-by-visit interaction as the factors. An unstructured covariance matrix is used to model the within-subject errors. The denominator degrees of freedom are estimated using the Kenward-Roger approximation. 2-Sided p-value is for treatment difference from the stage-specific MMRM analysis.
structure (smiles),measurement,setting,value
"CC(C)COc1ccc(CNC(=O)N(Cc2ccc(F)cc2)C2CCN(C)CC2)cc1 [pimavanserin, N-(4-Fluorophenylmethyl)-N-(1-methylpiperidin-4-yl)-N′-(4-(2-methylpropyloxy)phenylmethyl)carbamide]",HAMD-17 Melancholic Symptom Subscale Score Effect Size (Cohen's d),Stage 1,0.558
same,HAMD-17 Melancholic Symptom Subscale Score Change from Baseline to Week 5 Mean (SE),Stage 1,−6.8 (0.62)
same,HAMD-17 Melancholic Symptom Subscale Score Change from Baseline to Week 5 Median,Stage 1,−8.0
same,HAMD-17 Melancholic Symptom Subscale Score Effect Size (Cohen's d),Stage 2,−0.304
same,HAMD-17 Melancholic Symptom Subscale Score Change from Baseline to Week 5 Mean (SE),Stage 2,−1.0 (0.46)
same,HAMD-17 Melancholic Symptom Subscale Score Change from Baseline to Week 5 Median,Stage 2,−1.0
